Molecular target: T1, serum amyloid P component (SAP) (Homo sapiens, UniProt P02743)
T1 construct: gene APCS; pentamer purified from serum; 204-residue subunits
Assay: ITC; crystal structure
Format: binding

T1 sequence (P02743 20-223): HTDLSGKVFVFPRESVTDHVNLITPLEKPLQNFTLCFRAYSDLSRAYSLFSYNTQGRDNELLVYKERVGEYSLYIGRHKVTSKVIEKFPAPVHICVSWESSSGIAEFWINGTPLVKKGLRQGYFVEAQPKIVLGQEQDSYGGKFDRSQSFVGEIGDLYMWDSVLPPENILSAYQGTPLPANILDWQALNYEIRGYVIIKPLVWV

Row | Kd [µM] | Structure (SMILES)
1 | 18.6 | CC(=O)N1CCC[C@@H]1C(=O)O [N-acetyl-D-proline]
2 | 322 | CC(=O)N1CCC[C@H]1C(=O)O [N-acetyl-L-proline]
